US8633315B2, “Substituted hydroxyethyl amine compounds as beta-secretase modulators and methods of use” (Amgen Inc., priority 2007, dated 2014)

Assays:
BACE1 = BACE1 (Homo sapiens, UniProt P56817); experiment: In vitro enzymatic BACE FRET (fluorescence resonance energy transfer) assay; assay type: biochemical
Experimental: In Vitro Enzymatic BACE FRET (Fluorescence Resonance Energy Transfer) Assay (Enzyme Assay Data in Table 1)
The assay buffer used in this screen is 0.05 M acetate, pH 4.2, 10% DMSO final, 100 uM genapol (which is a nonionic detergent, below its Critical Micelle Concentration). […] The assay is effectively started by the addition of FRET substrate (50 nM) and the combination is incubated for one hour. The FRET assay is terminated with by addition of Tris buffer, which raises the pH to neutrality, and the fluorescence is determined. The FRET substrate is a peptide with commercially available fluorophore and quencher, on opposite sides of the BACE cleavage site. Proteolytic cleavage of the FRET substrate releases quenching of fluorescence (excitation […] and emission […]).

[1] = tested on: Cells stably expressing Amyloid Precursor Protein (APP); experiment: In vitro BACE cell-based assay (HEK cell assay): Aβ40 in conditioned medium by sandwich ELISA; conditions: Homo sapiens, HEK293, 24 h, Aβ40 in conditioned medium after 24 h incubation
Experimental: In Vitro BACE Cell-Based Assay:
The cell-based assay measures inhibition or reduction of Aβ40 in conditioned medium of test compound treated cells expressing amyloid precursor protein.
Cells stably expressing Amyloid Precursor Protein (APP) were plated at a density of 40K cells/well in 96 well plates (Costar). The cells were cultivated for 24 hours at 37° C. and 5% CO2 in DMEM supplemented with 10% FBS. The test compounds were then added to cells in 10-point dose response concentrations with the starting concentration being either 100 μM or 10 μM. The compounds were diluted from stock solutions in DMSO and the final DMSO concentration of the test compounds on cells was 0.1%. After 24 h of incubation with the test compounds the supernatant conditioned media was collected and the Aβ 40 levels were determined using a sandwich ELISA. The IC50 of the compound was calculated from the percent of control or percent inhibition of Aβ 40 as a function of the concentration of the test compound.
The sandwich ELISA to detect Aβ 40 was performed in 96 well microtiter plates, which were pre-treated with goat anti-rabbit IgG (Pierce). The capture and detecting antibody pair that were used to detect Aβ 40 from cell supernatants were affinity purified pAb40 (Biosource) and biotinylated 6E10 (Signet Labs Inc.), respectively. The optimal concentration for the pAb40 antibody was 3 μg/ml in Superblock/TBS (Pierce) that was supplemented with 0.05% Tween 20 (Sigma). Optimal concentration for the detection antibody 6E10-biotinylated was 0.5 μg/ml in Superblock/TBS (Pierce) that had been supplemented with 2% normal goat serum and 2% normal mouse serum.
Cellular supernatants were incubated with the capture antibody for 3 h at 4° C., followed by 3 wash steps in TBS-tween (0.05%). The detecting antibody incubation was for 2 h at 4° C., again followed by the wash steps as described previously. The final readout of the ELISA is Time-Resolved Fluorescence (counts per minute) using Delfia reagents Streptavidin-Europium and Enhancement solutions (Perkin Elmer) and the Victor 2 multilabel counter (Perkin Elmer).
Of the compounds tested, in-the cell-based assay, data for each of Examples 33-156 is provided in Table 1 and Examples 208-246 are provided in Table 4.

BACE1, sequence (P56817 46-501, species assumed): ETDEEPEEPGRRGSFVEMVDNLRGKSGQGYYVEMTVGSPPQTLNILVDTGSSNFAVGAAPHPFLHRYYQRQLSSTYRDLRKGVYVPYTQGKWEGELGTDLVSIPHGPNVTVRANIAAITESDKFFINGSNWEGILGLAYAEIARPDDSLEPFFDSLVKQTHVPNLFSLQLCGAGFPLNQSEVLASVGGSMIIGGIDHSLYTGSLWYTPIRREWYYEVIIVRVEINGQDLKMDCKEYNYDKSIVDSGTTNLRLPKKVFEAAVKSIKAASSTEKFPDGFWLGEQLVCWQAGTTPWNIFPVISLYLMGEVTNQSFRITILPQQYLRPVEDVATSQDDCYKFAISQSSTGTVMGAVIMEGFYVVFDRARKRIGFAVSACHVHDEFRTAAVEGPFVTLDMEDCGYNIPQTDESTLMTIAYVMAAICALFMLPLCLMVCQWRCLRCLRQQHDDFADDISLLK

Structure (SMILES): C=CC[C@H](NC(=O)c1ccc(OC)nc1)[C@H](O)CN[C@H]1CC2(CCC2)Oc2ncc(CC(C)(C)C)cc21 [Example 63, N-((1S)-1-((1R)-2-(((4′S)-6′-(2,2-dimethylpropyl)-3′,4′-dihydrospiro[cyclobutane-1,2′-pyrano[2,3-b]pyridin]-4′-yl)amino)-1-hydroxyethyl)-3-buten-1-yl)-6-(methyloxy)-3-pyridinecarboxamide]
- IC50 (BACE1): 0.215 µM
- IC50 [1]: 1.4 µM

Structure (SMILES): C=CC[C@H](NC(=O)c1cccc(F)c1)[C@H](O)CN[C@H]1CC2(CCC2)Oc2ncc(CC(C)(C)C)cc21 [Example 64, N-((1S)-1-((1R)-2-(((4′S)-6′-(2,2-dimethylpropyl)-3′,4′-dihydrospiro[cyclobutane-1,2′-pyrano[2,3-b]pyridin]-4′-yl)amino)-1-hydroxyethyl)-3-buten-1-yl)-3-fluorobenzamide]
- IC50 (BACE1): 0.371 µM
- IC50 [1]: 2.58 µM

Structure (SMILES): C=CC[C@H](NC(=O)c1cccnc1OC)[C@H](O)CN[C@H]1CC2(CCC2)Oc2ncc(CC(C)(C)C)cc21 [Example 65, N-((1S)-1-((1R)-2-(((4′S)-6′-(2,2-dimethylpropyl)-3′,4′-dihydrospiro[cyclobutane-1,2′-pyrano[2,3-b]pyridin]-4′-yl)amino)-1-hydroxyethyl)-3-buten-1-yl)-2-(methyloxy)-3-pyridinecarboxamide]
- IC50 (BACE1): 0.475 µM
- IC50 [1]: 0.258 µM

Structure (SMILES): C=CC[C@H](NC(=O)c1ccc(F)nc1)[C@H](O)CN[C@H]1CC2(CCC2)Oc2ncc(CC(C)(C)C)cc21 [Example 66, N-((1S)-1-((1R)-2-(((4′S)-6′-(2,2-dimethylpropyl)-3′,4′-dihydrospiro[cyclobutane-1,2′-pyrano[2,3-b]pyridin]-4′-yl)amino)-1-hydroxyethyl)-3-buten-1-yl)-6-fluoro-3-pyridinecarboxamide]
- IC50 (BACE1): 0.179 µM
- IC50 [1]: 0.071 µM

Structure (SMILES): C=CC[C@H](NC(=O)c1cccnc1F)[C@H](O)CN[C@H]1CC2(CCC2)Oc2ncc(CC(C)(C)C)cc21 [Example 67, N-((1S)-1-((1R)-2-(((4′S)-6′-(2,2-dimethylpropyl)-3′,4′-dihydrospiro[cyclobutane-1,2′-pyrano[2,3-b]pyridin]-4′-yl)amino)-1-hydroxyethyl)-3-buten-1-yl)-2-fluoro-3-pyridinecarboxamide]
- IC50 (BACE1): 0.199 µM
- IC50 [1]: 0.517 µM

Structure (SMILES): C=CC[C@H](NC(=O)c1cncnc1)[C@H](O)CN[C@H]1CC2(CCC2)Oc2ncc(CC(C)(C)C)cc21 [Example 68, N-((1S)-1-((1R)-2-(((4′S)-6′-(2,2-dimethylpropyl)-3′,4′-dihydrospiro[cyclobutane-1,2′-pyrano[2,3-b]pyridin]-4′-yl)amino)-1-hydroxyethyl)-3-buten-1-yl)-5-pyrimidinecarboxamide]
- IC50 (BACE1): 0.271 µM
- IC50 [1]: 0.709 µM

Structure (SMILES): C=CC[C@H](NC(=O)c1cccc(F)c1F)[C@H](O)CN[C@H]1CC2(CCC2)Oc2ncc(CC(C)(C)C)cc21 [Example 69, N-((1S)-1-((1R)-2-(((4′S)-6′-(2,2-dimethylpropyl)-3′,4′-dihydrospiro[cyclobutane-1,2′-pyrano[2,3-b]pyridin]-4′-yl)amino)-1-hydroxyethyl)-3-buten-1-yl)-2,3-difluorobenzamide]
- IC50 (BACE1): 0.155 µM
- IC50 [1]: 0.121 µM

Structure (SMILES): C=CC[C@H](NC(=O)c1ccc(F)cc1F)[C@H](O)CN[C@H]1CC2(CCC2)Oc2ncc(CC(C)(C)C)cc21 [Example 70, N-((1S)-1-((1R)-2-(((4′S)-6′-(2,2-dimethylpropyl)-3′,4′-dihydrospiro[cyclobutane-1,2′-pyrano[2,3-b]pyridin]-4′-yl)amino)-1-hydroxyethyl)-3-buten-1-yl)-2,4-difluorobenzamide]
- IC50 (BACE1): 0.264 µM
- IC50 [1]: 0.526 µM

Structure (SMILES): C=CC[C@H](NC(=O)c1cc(F)ccc1F)[C@H](O)CN[C@H]1CC2(CCC2)Oc2ncc(CC(C)(C)C)cc21 [Example 71, N-((1S)-1-((1R)-2-(((4′S)-6′-(2,2-dimethylpropyl)-3′,4′-dihydrospiro[cyclobutane-1,2′-pyrano[2,3-b]pyridin]-4′-yl)amino)-1-hydroxyethyl)-3-buten-1-yl)-2,5-difluorobenzamide]
- IC50 (BACE1): 0.212 µM
- IC50 [1]: 0.998 µM

Structure (SMILES): C=CC[C@H](NC(=O)c1c(F)cccc1F)[C@H](O)CN[C@H]1CC2(CCC2)Oc2ncc(CC(C)(C)C)cc21 [Example 72, N-((1S)-1-((1R)-2-(((4′S)-6′-(2,2-dimethylpropyl)-3′,4′-dihydrospiro[cyclobutane-1,2′-pyrano[2,3-b]pyridin]-4′-yl)amino)-1-hydroxyethyl)-3-buten-1-yl)-2,6-difluorobenzamide]
- IC50 (BACE1): 0.276 µM
- IC50 [1]: 3.57 µM

Structure (SMILES): C=CC[C@H](NC(=O)c1ccc(F)c(F)c1F)[C@H](O)CN[C@H]1CC2(CCC2)Oc2ncc(CC(C)(C)C)cc21 [Example 73, N-((1S)-1-((1R)-2-(((4′S)-6′-(2,2-dimethylpropyl)-3′,4′-dihydrospiro[cyclobutane-1,2′-pyrano[2,3-b]pyridin]-4′-yl)amino)-1-hydroxyethyl)-3-buten-1-yl)-2,3,4-trifluorobenzamide]
- IC50 (BACE1): 0.483 µM
- IC50 [1]: 2.65 µM

Structure (SMILES): C=CC[C@H](NC(=O)c1cc(F)cc(F)c1F)[C@H](O)CN[C@H]1CC2(CCC2)Oc2ncc(CC(C)(C)C)cc21 [Example 74, N-((1S)-1-((1R)-2-(((4′S)-6′-(2,2-dimethylpropyl)-3′,4′-dihydrospiro[cyclobutane-1,2′-pyrano[2,3-b]pyridin]-4′-yl)amino)-1-hydroxyethyl)-3-buten-1-yl)-2,3,5-trifluorobenzamide]
- IC50 (BACE1): 0.305 µM
- IC50 [1]: 1.62 µM

Structure (SMILES): C=CC[C@H](NC(=O)c1c(F)ccc(F)c1F)[C@H](O)CN[C@H]1CC2(CCC2)Oc2ncc(CC(C)(C)C)cc21 [Example 75, N-((1S)-1-((1R)-2-(((4′S)-6′-(2,2-dimethylpropyl)-3′,4′-dihydrospiro[cyclobutane-1,2′-pyrano[2,3-b]pyridin]-4′-yl)amino)-1-hydroxyethyl)-3-buten-1-yl)-2,3,6-trifluorobenzamide]
- IC50 (BACE1): 0.253 µM
- IC50 [1]: 0.366 µM

Structure (SMILES): C=CC[C@H](NC(=O)c1cnccc1OC)[C@H](O)CN[C@H]1CC2(CCC2)Oc2ncc(CC(C)(C)C)cc21 [Example 76, N-((1S)-1-((1R)-2-(((4′S)-6′-(2,2-dimethylpropyl)-3′,4′-dihydrospiro[cyclobutane-1,2′-pyrano[2,3-b]pyridin]-4′-yl)amino)-1-hydroxyethyl)-3-buten-1-yl)-4-(methyloxy)-3-pyridinecarboxamide]
- IC50 (BACE1): 0.675 µM
- IC50 [1]: 0.802 µM

Structure (SMILES): C=CC[C@H](NC(=O)c1cc(F)c(F)cc1F)[C@H](O)CN[C@H]1CC2(CCC2)Oc2ncc(CC(C)(C)C)cc21 [Example 77, N-((1S)-1-((1R)-2-(((4′S)-6′-(2,2-dimethylpropyl)-3′,4′-dihydrospiro[cyclobutane-1,2′-pyrano[2,3-b]pyridin]-4′-yl)amino)-1-hydroxyethyl)-3-buten-1-yl)-2,4,5-trifluorobenzamide]
- IC50 (BACE1): 0.44 µM
- IC50 [1]: 3.31 µM

Structure (SMILES): C=CC[C@H](NC(=O)c1c(F)cc(F)cc1F)[C@H](O)CN[C@H]1CC2(CCC2)Oc2ncc(CC(C)(C)C)cc21 [Example 78, N-((1S)-1-((1R)-2-(((4′S)-6′-(2,2-dimethylpropyl)-3′,4′-dihydrospiro[cyclobutane-1,2′-pyrano[2,3-b]pyridin]-4′-yl)amino)-1-hydroxyethyl)-3-buten-1-yl)-2,4,6-trifluorobenzamide]
- IC50 (BACE1): 0.641 µM
- IC50 [1]: 3 µM
